{"source": "patent US9976141B2", "about": "“Compositions and methods for inhibiting gene expression of Hif2alpha” (Arrowhead Madison Inc., priority 2015, dated 2018)", "data": [{"test_system": "human (tumor) Hif2α (EPAS1) mRNA", "experiment": "Hif2α knockdown in orthotopic RCC tumor bearing mice, single injection of RNAi trigger-delivery polymer conjugate, RT-qPCR (Table 7)", "format": "in vivo", "details": "RNAi trigger 150 μg, polymer 100A 300 μg; single tail vein injection; relative to isotonic glucose", "method_in_brief": "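A single intravenous dose of Hif2α RNAi trigger–delivery polymer conjugate, or isotonic glucose vehicle, was given to nude mice with subcapsular A498-SEAP renal tumours (about 5–6 weeks old). At the indicated time, tumour RNA was assayed by biplex TaqMan qPCR against CycA, and relative expression was calculated by ΔΔCT versus vehicle.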", "values": [{"substance": "AD01407 (antisense TUUCAUGAAAUCGUUACGUCGGCUAU; sense UAUAUCGACGUAACGAUUUCAUGAAA; Hif2alpha RNAi agent antisense strand; modified_base 25 modified base = “2′-hydroxy corresponding nucleoside”; modified_base 2,4,6,10,12,14,16,18,20 /mod_base = “2′-deoxy-2′-fluoro corresponding nucleoside”; modified_base 3,5,7,9,11,13,15,17,19,21,22,23,24,26 /mod_base = “2′-O-methyl corresponding nucleoside”; modified_base 8 /mod_base = “2′-3′ seco corresponding nucleotide”; modified_base 2,24 /m; Hif2alpha RNAi agent sense strand; modified_base 2,4 modified base = “2′-hydroxy corresponding nucleoside”; modified_base 6,8,10,12,14,16,18,20,22,24,26 /mod_base = “2′-deoxy-2′-fluoro correspondi)", "Relative Expression day 4 (Hif2α mRNA in kidney tumor)": 0.47}, {"substance": "AD01408 (antisense TUUCAUGAAAUCGUUACGUCGGCUAU; sense UAUAUCGACGUAACGAUUUCAUGAAA; Hif2alpha RNAi agent antisense strand; modified_base 25 modified base = “2′-hydroxy corresponding nucleoside”; modified_base 2,4,6,8,10,12,14,16,18,20 /mod_base = “2′-deoxy-2′-fluoro corresponding nucleoside”; modified_base 3,5,7,11,13,15,17,19,21,22,23,24,26 /mod_base = “2′-O-methyl corresponding nucleoside”; modified_base 9 /mod_base = “2′-3′ seco corresponding nucleotide”; modified_base 2,3,23,; Hif2alpha RNAi agent sense strand; modified_base 2,4 modified base = “2′-hydroxy corresponding nucleoside”; modified_base 6,8,10,12,14,16,18,20,22,24,26 /mod_base = “2′-deoxy-2′-fluoro correspondi)", "Relative Expression day 4 (Hif2α mRNA in kidney tumor)": 0.50}, {"substance": "AD01409 (antisense TUUCAUGAAAUCGUUACGUCGGCUAU; sense UAUAUCGACGUAACGAUUUCAUGAAA; Hif2alpha RNAi agent antisense strand; modified_base 25 modified base = “2′-hydroxy corresponding nucleoside”; modified_base 2,4,6,8,10,12,14,16,18,20 /mod_base = “2′-deoxy-2′-fluoro corresponding nucleoside”; modified_base 3,5,7,11,13,15,17,19,21,22,23,24,26 /mod_base = “2′-O-methyl corresponding nucleoside”; modified_base 9 /mod_base = “2′-3′ seco corresponding nucleotide”; modified_base 2,3,23,; Hif2alpha RNAi agent sense strand; modified_base 2,4 modified base = “2′-hydroxy corresponding nucleoside”; modified_base 6,8,10,12,14,16,18,20,22,24,26 /mod_base = “2′-deoxy-2′-fluoro correspondi)", "Relative Expression day 4 (Hif2α mRNA in kidney tumor)": 0.55}]}]}
